Type in all cases: cell-based
One experiment concerns RSV Long strain. Put plainly: RSV CPE reduction assay. The following applies: CPE assay, HEp-2 cells infected with RSV Long strain, m.o.i. 0.01, 6 days, CCK-8 readout, read-out: EC50. On the procedure: CPE reduction assays were performed as described by Sidwell and Huffman et al., Appl Microbiol. (1971) 22(5):797-801 with slight modifications. HEp-2 cells (ATCC) at a concentration of 6000 cell/well were infected with RSV Long strain (ATCC) at a multiplicity of infection (m.o.i.) of 0.01, and each of the test compounds were provided to duplicate wells at final concentrations starting from 100 μM using ⅓ stepwise dilutions. For each compound, two wells were set aside as uninfected, untreated cell controls (CC), and two wells per test compound received virus only as a control for virus replication (VC). […] At the end of the incubation, 20 μl of cell counting kit-8 reagent (CCK-8, Dojindo Molecular Technologies, Inc.) were added to each well. After 4 hour incubation, the absorbance was measured in each well according to manufacturer's instruction, and the 50% effective concentration (EC50) was calculated by using regression analysis, based on the mean O.D. at each concentration of compound.
(§1) Compounds of Formula (I) and Formula (II) are active in the assay as noted in Tables 2 and 3, where ‘A’ indicates an EC50<1 μM, ‘B’ indicates an EC50 of >1 μM and <10 μM, ‘C’ indicates an EC50>10 μM and <100 μM, and ‘D’ indicates an EC50>100 μM.

The subject of a further experiment is Influenza A/WSN/33 virus. Put plainly: Influenza antiviral assay (real-time PCR). The conditions noted are these: A549 cells, 24 hour pre-incubation, 72 hours, read-out: Percent Inhibition. For orientation: In qPCR the cycle at which signal appears reflects the starting amount.
The next experiment concerns RSV A2. Put plainly: RSV RT-PCR based assay. The conditions noted are these: RT-PCR assay, HEp-2 cells, 24 hour compound pre-incubation, RSV A2 at MOI 0.1, 4 days after infection, viral load, read-out: EC50. The procedure: RT-PCR based assays were performed in HEp-2 cells (ATCC: CCL-23) at a concentration of 20000 cell/well were plated in 96 well plates and incubated overnight. Each of the test compounds were ⅓ serially diluted and dosed to HEp-2 cells in duplicates. The highest final concentration for each compound was 100 uM. After 24 hour compound pre-incubation, RSV A2 (ATCC: VR-1540) at MOI of 0.1 was added. Two wells per compound were set aside as uninfected, untreated cell controls (CC), and four wells per test compound received virus only as a control for virus replication (VC). The assay was stopped 4 days after virus infection and conditioned media was removed for viral RNA isolation. The quantities of the RSV virus were measured by real-time PCR using a set of RSV specific primers and probe. The data was analyzed with Prism software with EC50 defined as drug concentration that reduced the viral load 50% from the viral control (VC).
as §1

[1] abbreviates: human respiratory syncytial virus, 144 h.
The mark [2] stands for this setting: human respiratory syncytial virus.

pEC50: −log10 of the molar value. Read-outs that look alike come from different tables or passages of the source. Where only a bound is given, the exact number is not on record here.

The pEC50 is the EC50 on a negative log10 scale, so that one unit is a factor of ten. A word on the inhibition: it is the percentage by which the read-out fell short of the control.

Regarding `[N-]=[N+]=N[C@]1(CO)O[C@@H](n2ccc(N)nc2=O)[C@H](F)[C@@H]1O` [Compound 2, 4′-azido-2′-deoxy-2′-fluorocytidine], the pEC50 with RSV Long strain (setting [1]) and in the experiment on RSV A2 (setting [2]) was over 6.00 each time. Besides, the inhibition at 30 µM with Influenza A/WSN/33 virus is 99.8%.
Regarding `[N-]=[N+]=N[C@]1(CO)O[C@@H](n2cnc3c(=O)[nH]c(N)nc32)[C@H](O)[C@@H]1O` [Compound 10, 4′-azidoguanosine], the negative logarithm of the EC50 (pEC50) with RSV Long strain (setting [1]) and in the experiment with RSV A2 (setting [2]) was over 6.00 throughout. Further, the inhibition at 30 µM in the experiment on Influenza A/WSN/33 virus stood at 83.3%.
Regarding `[N-]=[N+]=N[C@]1(CO)O[C@@H](n2cnc3c(=O)[nH]c(N)nc32)[C@H](F)[C@@H]1O` [Compound 27, 4′-azido-2′-deoxy-2′-fluoroguanosine], the pEC50 in the experiment on RSV Long strain (setting [1]) and with RSV A2 (setting [2]) was over 6.00 each time. Besides, the inhibition at 30 µM with Influenza A/WSN/33 virus is 91%.
Take `[N-]=[N+]=N[C@]1(CO)O[C@@H](n2cnc3c(N)ncnc32)[C@H](F)[C@@H]1O` [Compound 28, 4′-azido-2′-deoxy-2′-fluoroadenosine]: the pEC50 with RSV Long strain (setting [1]) and in the experiment on RSV A2 (setting [2]) was under 4.00 each time. The inhibition at 30 µM with Influenza A/WSN/33 virus stood at 94.6%.
`[N-]=[N+]=N[C@]1(CO)O[C@@H](n2cnc3c(=O)[nH]c(N)nc32)C(F)(F)[C@@H]1O` [Compound 30, 4′-azido-2′-deoxy-2′,2′-difluoroguanosine]: the inhibition at 30 µM in the experiment with Influenza A/WSN/33 virus came to 99.9%. Also, the negative-log EC50 (pEC50) in the experiment with RSV A2 (setting [2]) was under 4.00.
For the compound `COc1nc(N)nc2c1ncn2C1O[C@@](CO)(N=[N+]=[N-])[C@@H](O)[C@H]1F` (stereo partly drawn) [Compound 49, 2-amino-9-(4-aido-2-deoxy-2-fluoro-1-ribofuranosyl)-6-methoxypurine], the negative logarithm of the EC50 (pEC50) in the experiment with RSV Long strain and in the experiment on RSV A2 was under 4.00 in each case.
As for `C[C@@]1(n2ccc(N)nc2=O)O[C@@](CO)(N=[N+]=[N-])[C@@H](O)[C@H]1O` [Compound 50, 4′-azido-1′-methylcytidine], the pEC50 in the experiment on RSV Long strain (setting [1]) and in the experiment on RSV A2 (setting [2]) was under 4.00 each time. Besides, the inhibition at 30 µM in the experiment on Influenza A/WSN/33 virus stood at 90.9%.
Take `C[C@]1(F)[C@H](n2ccc(=O)[nH]c2=O)O[C@@](CO)(N=[N+]=[N-])[C@H]1O` [Compound 51, 4′-azido-2′-deoxy-2′-α-fluoro-2′-β-methyluridine]: the pEC50 in the experiment with RSV Long strain (setting [1]) and with RSV A2 (setting [2]) was under 4.00 in each case.

Values taken from patent publication US8877731B2, “Azido nucleosides and nucleotide analogs” (Alios Biopharma, Inc., priority 2010, dated 2014).
